Consider 25 compounds from PMC10066322 (Scientific Reports, 2023).

For one test, the target named is T1, PARN1-430 (Homo sapiens, UniProt O95453).
T1 construct: expression of the C-terminal truncated protein (1-430 aa of PARN) was soluble; His tag (from the pCold I vector); made in house; host or cells: E. coli Rosetta 2 DE
T1 sequence (O95453 1-430): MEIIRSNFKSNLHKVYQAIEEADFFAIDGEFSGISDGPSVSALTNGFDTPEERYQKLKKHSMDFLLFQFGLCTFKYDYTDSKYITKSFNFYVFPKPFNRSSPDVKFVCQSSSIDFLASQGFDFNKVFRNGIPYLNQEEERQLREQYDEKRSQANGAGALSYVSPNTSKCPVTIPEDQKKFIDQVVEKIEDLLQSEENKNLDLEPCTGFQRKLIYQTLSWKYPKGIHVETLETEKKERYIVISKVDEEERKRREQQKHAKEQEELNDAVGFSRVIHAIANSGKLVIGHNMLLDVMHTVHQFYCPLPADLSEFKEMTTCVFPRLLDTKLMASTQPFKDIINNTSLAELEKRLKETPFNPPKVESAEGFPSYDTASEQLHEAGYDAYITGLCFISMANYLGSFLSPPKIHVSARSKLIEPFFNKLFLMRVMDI
Nature of the test: Inhibition fluorescence assay (FAM-RNA / BHQ quencher deadenylase assay). It counts as biochemical. The conditions noted are these: 2.5 mM AMP, PARN1-430 73 nM. Here is the method:
To easily screen compounds for inhibition of PARN activity, we developed an assay in which fluorescence was used as the readout for monitoring PARN1-430’s activity (Fig. 3a). This assay was modeled on a similar assay developed for Caf1/CNOT7 deadenylase. In this assay, PARN1-430 was incubated with a 5′-fluorescently labeled oligoadenylated RNA. In the absence of deadenylation, this substrate RNA can effectively hybridize to a complementary DNA oligonucleotide with a quencher on its 3′ end leading to a loss of fluorescence (Fig. 3a). When the RNA substrate is deadenylated, the quenching oligonucleotide is no longer able to stably hybridize leading to an increase in fluorescence in the reaction.
Figure 3 Developing a fluorescence assay for PARN inhibition. (a) Cartoon depicting the inhibition fluorescence assay. Schematic diagram of the fluorescence-based deadenylase assay. The assay is based on a 5′ FAM-labelled RNA oligonucleotide substrate. After incubation of the substrate in the presence of PARN1-430, the reaction is stopped and a 3′ BHQ-labelled DNA oligonucleotide probe complementary to the RNA substrate is added. The fluorescence of intact substrate is quenched upon probe hybridization because of the proximity of the BHQ […]. In contrast, the BHQ-labelled probe cannot hybridize to the FAM-labelled reaction product allowing detection of FAM fluorescence. […] 2-way ANOVA, multiple comparisons test, average ± SD, n = 3 replicates. *P < 0.05, **P < 0.005, ***P < 0.001, ****P < 0.0001, n.s. was not indicated. […] Dotted-line represents RNA and RNA + Quencher data. One-way ANOVA, multiple comparisons test, average ± SD, n ≥ 3 replicates. *P < 0.05, **P < 0.005, ***P < 0.001, ****P < 0.0001, n.s. was not indicated. (d) PARN1-430 and PARNmut enzymatic activity measured at different time points. […] Dotted-line represents RNA and RNA + Quencher data. 2-way ANOVA, multiple comparisons test, average ± SD, n = 3 replicates. *P < 0.05, **P < 0.005, ***P < 0.001, ****P < 0.0001, n.s. was not indicated.
Quenched reaction was incubated at room temperature for 10–60 min and fluorescence was measured using Fluorescein wavelength measurement.
Regarding `Nc1ncnc2c1ncn2[C@@H]1O[C@H](COP(=O)(O)O)[C@@H](O)[C@H]1O` [AMP, adenosine monophosphate], the “inhibition of PARN1-430, fluorescence assay” value is given as “effectively inhibited”.

The test is the same for the next values; noted with them: computational docking compounds; fluorescence assay and gels; PARN1-430 pretreated with drug 10 min.
Take `Nc1ncnc2c1c(Br)cn2[C@@H]1O[C@H](CO)[C@@H](O)[C@H]1O` [5-bromotubercidine]: the “PARN inhibitor in vitro” value was “No”.

In the case of `Nc1nc(Cl)nc2c1ncn2[C@H]1C[C@H](O)[C@@H](CO)O1` [Cladribine], the “PARN inhibitor in vitro” value was “Yes”.

In the case of `Nc1cccc(-c2cc3c(Oc4cccc(O)c4)ncnc3[nH]2)c1` [TWS119], the “PARN inhibitor in vitro” value was “No”.

For the compound `Nc1ncnc2c1ccn2[C@@H]1O[C@H](CO)[C@@H](O)[C@H]1O` [Tubercidine], the “PARN inhibitor in vitro” value is reported as “Yes”.

Consider `Nc1ncnc2c1ncn2[C@@H]1O[C@H](CO)[C@@H](O)[C@@H]1O` [Vidarabine], for which the “PARN inhibitor in vitro” value is given as “No”.

Consider `CCn1nc(C2CCN(C(=O)CCO)CC2)nc1-c1cnc(N)c(-c2nnc(C(C)(C)C)o2)n1` [AZD8835], for which the “PARN inhibitor in vitro” value is given as “No”.

With `NC(=O)c1ncn([C@@H]2O[C@H](CO)[C@@H](O)[C@H]2O)c1N` [AICAR], the “PARN inhibitor in vitro” value is “No”.

For the compound `COc1nc(N)c2ncn([C@@H]3O[C@H](CO)[C@@H](O)[C@H]3O)c2n1` [Spongosine], the “PARN inhibitor in vitro” value is listed as “Yes”.

On to `Nc1ncnc2c1ncn2[C@H]1O[C@@H](CO)[C@H](O)[C@@H]1O` [L-adenosine], for which the “PARN inhibitor in vitro” value is listed as “No”.

As for `Nc1ncnc2c1c(I)cn2C1OC(CO)C(O)C1O` (stereo not shown) [5-ITU, 5-Iodotubercidin], the “PARN inhibitor in vitro” value is “No”.

For the compound `Nc1nc(Cl)nc2c1ncn2[C@@H]1O[C@H](CO)[C@@H](O)[C@@H]1F` [Clofarabine], the “PARN inhibitor in vitro” value was “No”.

As for `CNC(=O)c1cnn(-c2nc(N)c3ncn([C@@H]4O[C@H](CO)[C@@H](O)[C@H]4O)c3n2)c1` [Regadenoson], the “PARN inhibitor in vitro” value was “Yes”.

A further test deals with T1, PARN1-430. Nature of the test: Gel assay of poly(A) RNA shortening by PARN1-430.
Details: not given
The test is classed as biochemical. As for the experimental part:
PARN1-430 was incubated with a fluorescently labeled RNA with a CCUUUCC sequence followed by a 9 nucleotide-long poly(A) tail and the reaction product was visualized on denaturing acrylamide gels. We observed that PARN removed the 3′ oligo(A) tail from the RNA substrate (Fig. 2c and d). […] Moreover, we observed that PARN is inhibited when treated with adenosine monophosphate (AMP), as has been reported previously.
1 µL of protein (73 nM as final concentration) (stock protein is diluted in 1× lysis buffer (HEPES KOH, pH 7.4, 30 mM, KOAc 100 mM, and Mg(Oac)2 2 mM) was added to 4 µL of 2.5× reaction buffer (Tris–HCl pH 7.4, 10 mM, KCl 50 mM, MgCl2 5 mM). If drug was added, reaction was pre-incubated with drugs for 10 min before 5 µL of RNA (5 µM as final concentration) was added. The reaction was incubated at 37 °C for 20 min. After the incubation, the reaction was either diluted with 2× loading buffer and heated to 95 °C for 5 min for gel or quenched by adding 10 µL of quencher solution (30 µM of 3′-BHQ labeled quench DNA in 1% SDS). Quenched reaction was incubated at room temperature for 10–60 min and fluorescence was measured using Fluorescein wavelength measurement.
15% TBE-Urea gel (Thermo Fisher Scientific) was prerun at 20W for 30 min. RNAs from the reaction was loaded into 15% TBE gels and run at 300 V for 35 min. The gel was visualized using iBright (Invitrogen FL1500).
In the case of `Nc1ncnc2c1ncn2[C@@H]1O[C@H](COP(=O)(O)O)[C@@H](O)[C@H]1O` [AMP, adenosine monophosphate], the “inhibitory effect on PARN1-430, gel assay” value was “inhibited”.

In another test the target is T2, PARN (Homo sapiens, UniProt O95453).
T2 construct: expression of the C-terminal truncated protein (1-430 aa of PARN) was soluble; His tag (from the pCold I vector); made in house; host or cells: E. coli Rosetta 2 DE
T2 sequence (O95453 1-430): T1 sequence (O95453 1-430)
Assay: not given
The conditions noted are these: cited from earlier work.
As to `Nc1ncnc2c1ncn2[C@@H]1O[C@H](COP(=O)(O)O)[C@@H](O)[C@H]1O` [AMP, adenosine monophosphate], the “concentration at which PARN1-430 is inhibited” value is above 1 mM.

On to `Cc1cn([C@@H]2O[C@H](CO)[C@@H](O)[C@H](F)[C@H]2O)c(=O)[nH]c1=O` [T1, 1-(3′-deoxy-3′-fluoro-β-d-glucopyranosyl) thymine], for which the Ki is 135 ± 18 µM and the “PARN inhibitor in vitro” value is on record as “Yes”.

`NC[C@@H]1O[C@H](O[C@H]2[C@@H](O)[C@H](O[C@@H]3[C@@H](O)[C@H](N)C[C@H](N)[C@H]3O[C@H]3O[C@H](CO)[C@@H](O)C[C@H]3N)O[C@@H]2CO)[C@H](N)[C@@H](O)[C@@H]1O[C@H]1O[C@H](CO)[C@@H](O)[C@H](O)[C@@H]1O` [Lividomycin]: the inhibitory constant (Ki) was 18.7 ± 2.8 µM and the “PARN inhibitor in vitro” value is on record as “Yes”.

Take `OC[C@H]1OC(O)[C@H](O)[C@@H](F)[C@@H]1O` (stereo partly shown) [B6]: the “PARN inhibitor in vitro” value is listed as “Yes”.

Consider `O=C(Nc1ncnc2c1ncn2[C@@H]1O[C@H](CO)C[C@H](F)[C@H]1O)c1ccccc1` [A2, 9-(3′,4′, dideoxy-3′-fluoro-β-d-glucopyranosyl)-N6-benzoyl adenine], for which the inhibitory constant (Ki) was 510 ± 52 µM and the “PARN inhibitor in vitro” value is “Yes”.

Take `O=c1[nH]c(=O)n([C@@H]2O[C@H](CO)[C@@H](O)[C@H](F)[C@H]2O)cc1F` [FU1, 1-(3′-deoxy-3′-fluoro-β-d-glucopyranosyl) 5-fluorouracil]: the Ki is 98 ± 12 µM and the “PARN inhibitor in vitro” value was “Yes”.

Turning to `O=c1ccn([C@@H]2O[C@H](CO)[C@@H](O)[C@H](F)[C@H]2O)c(=O)[nH]1` [U1, 1-(3′-deoxy-3′-fluoro-β-d-glucopyranosyl) uracil], the Ki is 19 ± 5 µM and the “PARN inhibitor in vitro” value is “Yes”.

For the compound `NC[C@@H]1O[C@H](O[C@H]2[C@@H](O)[C@H](O[C@@H]3[C@@H](O)[C@H](N)C[C@H](N)[C@H]3O[C@H]3O[C@H](CO)[C@@H](O)[C@H](O)[C@H]3N)O[C@@H]2CO)[C@H](N)[C@@H](O)[C@@H]1O` [Paromomycin], the Ki is 17.3 ± 3.5 µM and the “PARN inhibitor in vitro” value is “Yes”.

As for `NC[C@H]1O[C@H](O[C@H]2[C@H](O)[C@@H](O[C@H]3O[C@H](CO)[C@@H](O)[C@H](N)[C@H]3O)[C@H](N)C[C@@H]2N)[C@H](N)[C@@H](O)[C@@H]1O` [Kanamycin B], the Ki was 7.3 ± 0.4 µM and the “PARN inhibitor in vitro” value is “Yes”.

As for `NC[C@H]1O[C@H](O[C@H]2[C@H](O)[C@@H](O[C@H]3O[C@H](CO)[C@@H](O)[C@H](N)[C@H]3O)[C@H](N)C[C@@H]2N)[C@H](N)C[C@@H]1O` [Tobramycin], the inhibition constant Ki is 7.1 ± 0.2 µM and the “PARN inhibitor in vitro” value is “Yes”.

For the compound Kanamycin A, the “PARN inhibitor in vitro” value was “Yes”.

For the compound `NC[C@@H]1O[C@H](O[C@H]2[C@@H](O)[C@H](O[C@@H]3[C@@H](O)[C@H](N)C[C@H](N)[C@H]3O[C@H]3O[C@H](CN)[C@@H](O)[C@H](O)[C@H]3N)O[C@@H]2CO)[C@H](N)[C@@H](O)[C@@H]1O` [Neomycin B], the inhibition constant Ki is 0.4 ± 0.1 µM and the “PARN inhibitor in vitro” value is given as “Yes”.

Consider `O=C(Nc1ncnc2c1ncn2[C@@H]1O[C@H](CO)C[C@H](F)[C@H]1O)c1ccccc1` [A6, 1-(3′,4′, dideoxy-3′-fluoro-β-d-glucopyranosyl)-N4-benzoyl adenine], for which the Ki is 210 ± 45 µM and the “PARN inhibitor in vitro” value is given as “Yes”.

By Ki is commonly meant the equilibrium dissociation constant of an inhibitor or competing ligand from its target.
